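Interpolation was linear, between the two tested concentrations surrounding the appropriate level; five concentrations were tested over 48 hours in 96-well plates. GI50: concentration for 50% inhibition of growth. TGI is the concentration that stops growth completely.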

From PubChem BioAssay (NCI) come the findings set out here.

Among the test systems are EKVX NSCLC; TK-10 renal; HCT-116 colon; UACC-257 melanoma; OVCAR-5 ovarian; SNB-19 CNS; RXF 393 renal; NCI-H226 lung; HCT-15 colon; NCI-H23 lung.
Common to all, as to experiment: NCI-60 cell line screen, 48 h

As to `O=C(NCCNc1nccc(-c2c(-c3cccc(O)c3)nc3sccn23)n1)Nc1cccc(C(F)(F)F)c1`, the GI50 in the assay on EKVX NSCLC is 4.16 µM; in the assay on TK-10 renal, 3.66 µM; in the assay with HCT-116 colon, 3.56 µM; in the assay on UACC-257 melanoma it was 2.51 µM; with OVCAR-5 ovarian it was 16.3 µM; in the assay with SNB-19 CNS it was 5.09 µM. For the same compound, the GI50 in the assay with RXF 393 renal is 2.41 µM; in the assay with NCI-H226 lung, 9.99 µM; in the assay with HCT-15 colon, 4.26 µM; in the assay with NCI-H23 lung, 4.62 µM. Also, the TGI came out at 36.6 µM with EKVX NSCLC; 11.1 µM in the assay with TK-10 renal; 11.5 µM with HCT-116 colon; 6.94 µM in the assay with UACC-257 melanoma; 65.3 µM in the assay on OVCAR-5 ovarian; 36.2 µM with SNB-19 CNS. Moreover, the TGI in the assay on RXF 393 renal amounted to 5.1 µM; with NCI-H226 lung it was 28.5 µM; in the assay with HCT-15 colon, 24.1 µM; in the assay on NCI-H23 lung, 32.5 µM.

`CC(=O)N1CC(=O)NC1=S`: the TGI in the assay with EKVX NSCLC, in the assay with TK-10 renal, in the assay on HCT-116 colon, in the assay on UACC-257 melanoma, in the assay on OVCAR-5 ovarian and in the assay with SNB-19 CNS was above 100 µM throughout. The TGI in the assay with NCI-H226 lung, with HCT-15 colon and in the assay with NCI-H23 lung was above 100 µM in each case.

Take `CSc1ccc(-c2cc(-c3nc4ccccc4[nH]3)nc(N)c2C#N)cc1`: the TGI was above 100 µM in the assay on EKVX NSCLC; 99.7 µM in the assay on TK-10 renal; 42.7 µM in the assay on HCT-116 colon; 39.4 µM with UACC-257 melanoma; 75.2 µM in the assay with OVCAR-5 ovarian; above 100 µM in the assay on SNB-19 CNS. In addition, the TGI is 24.7 µM in the assay with RXF 393 renal, 79.5 µM in the assay on NCI-H226 lung, 61.9 µM in the assay with HCT-15 colon and 99.5 µM in the assay with NCI-H23 lung.

In the case of `Cc1c2cc[n+](C)cc2c(C)c2c1[nH]c1ccc(Cl)cc12`, the TGI in the assay with EKVX NSCLC was 14.1 µM; with TK-10 renal it was 61.3 µM; in the assay on HCT-116 colon, 32.2 µM; in the assay with UACC-257 melanoma, 62.3 µM; in the assay with OVCAR-5 ovarian it was 84.4 µM; in the assay with SNB-19 CNS, 1.21 µM. Moreover, the TGI is 19.1 µM in the assay on RXF 393 renal, 4.57 µM in the assay with NCI-H226 lung, above 100 µM in the assay on HCT-15 colon and 9.12 µM in the assay with NCI-H23 lung.

`N#CCCOCN(CO)c1nc(N(CO)COCCC#N)nc(N(CO)COCCC#N)n1`: the TGI is 93.7 µM in the assay with EKVX NSCLC; 91.2 µM with TK-10 renal; 63.8 µM with HCT-116 colon; 63.9 µM with UACC-257 melanoma; above 100 µM with OVCAR-5 ovarian; above 100 µM with SNB-19 CNS. The TGI in the assay on RXF 393 renal amounted to 38.4 µM; with NCI-H226 lung it was 53.1 µM; in the assay on HCT-15 colon, 37.3 µM; with NCI-H23 lung, 71.5 µM.

In the case of `C=Cc1cc(OC)c2c(c1)c(=O)oc1c2cc(OC)c2c(O)ccc(C3OC(C)C(O)C(C)(O)C3O)c21` (stereo unspecified), the GI50 with EKVX NSCLC was 0.000589 µM; with HCT-116 colon, 0.000308 µM; in the assay on OVCAR-5 ovarian it was 0.000251 µM; in the assay on SNB-19 CNS it was 0.00151 µM; in the assay on RXF 393 renal it was 0.000174 µM; in the assay with HCT-15 colon it was 0.000552 µM. Further, the GI50 in the assay with NCI-H23 lung is 0.000113 µM. In addition, the TGI was 0.00855 µM in the assay with TK-10 renal, 0.733 µM with SNB-19 CNS and 0.467 µM with HCT-15 colon.

In the case of `CN=C(N)/N=C(\N)Nc1cc2ccccc2c2ccccc12`, the TGI in the assay with EKVX NSCLC was found to be 31.8 µM; in the assay with TK-10 renal, 26 µM; with HCT-116 colon, 26 µM; with UACC-257 melanoma, 30.9 µM; with OVCAR-5 ovarian, 33 µM; in the assay on SNB-19 CNS, 30.9 µM. The TGI in the assay on RXF 393 renal worked out at 31.9 µM; in the assay on NCI-H226 lung, 37.4 µM; with HCT-15 colon it was 33.4 µM; with NCI-H23 lung, 33.2 µM.

Take `CC(C)(O)CO/N=C1\C(c2c(O)[nH]c3ccccc23)=Nc2ccccc21`: the TGI is above 36.3 µM with EKVX NSCLC; 8.68 µM in the assay with TK-10 renal; above 100 µM in the assay with HCT-116 colon; above 96.4 µM in the assay with UACC-257 melanoma; 9.3 µM in the assay with OVCAR-5 ovarian; above 52.6 µM with SNB-19 CNS. Besides, the TGI with RXF 393 renal was 2.48 µM; in the assay on HCT-15 colon, 30.7 µM; in the assay on NCI-H23 lung, 12.7 µM.

With `Cc1c(NC(=O)c2cc([N+](=O)[O-])cc([N+](=O)[O-])c2)c(=O)n(-c2ccccc2)n1C`, the TGI in the assay with TK-10 renal, in the assay with HCT-116 colon, in the assay with UACC-257 melanoma, in the assay with SNB-19 CNS, in the assay on RXF 393 renal and with NCI-H226 lung was above 100 µM each time. For the same compound, the TGI with HCT-15 colon and in the assay on NCI-H23 lung was above 100 µM throughout.

With `NC(=O)Nc1ccc(C(=O)NCCCNC(=O)c2ccc(NC(N)=O)cc2)cc1`, the TGI with EKVX NSCLC, in the assay on TK-10 renal, in the assay on HCT-116 colon, with UACC-257 melanoma, in the assay on OVCAR-5 ovarian and in the assay on SNB-19 CNS was above 100 µM in each case. The TGI with RXF 393 renal, with NCI-H226 lung, in the assay on HCT-15 colon and in the assay on NCI-H23 lung was above 100 µM throughout.

In the case of `COc1c(O)c(O)c2c(c1O)C(=O)c1cc(C)cc(O)c1C2=O`, the TGI with EKVX NSCLC, in the assay with TK-10 renal, in the assay on HCT-116 colon, with UACC-257 melanoma, in the assay on OVCAR-5 ovarian and in the assay with SNB-19 CNS was above 100 µM throughout. For the same compound, the TGI is above 100 µM in the assay with RXF 393 renal, above 93.5 µM in the assay with NCI-H226 lung, above 100 µM in the assay on HCT-15 colon and above 100 µM with NCI-H23 lung.

`Cc1ccc([N+](=O)[O-])cc1S(=O)(=O)Nc1ccc(C2=NN(C(=O)c3ccccc3)C(c3cccs3)C2)cc1` (stereo unspecified): the TGI in the assay with EKVX NSCLC was 67.7 µM; in the assay on TK-10 renal, 75.1 µM; in the assay with HCT-116 colon it was above 100 µM; with UACC-257 melanoma, 72.9 µM; with OVCAR-5 ovarian, above 100 µM; in the assay on SNB-19 CNS it was above 100 µM. In addition, the TGI in the assay with RXF 393 renal is 56.8 µM; with NCI-H226 lung, 88.3 µM; in the assay with HCT-15 colon, above 100 µM; in the assay on NCI-H23 lung it was 61.7 µM.

With `COc1ccccc1/C=C/c1c(N)ncnc1Nc1cccc(Cl)c1`, the TGI in the assay on EKVX NSCLC was above 100 µM; in the assay on TK-10 renal, 44.1 µM; in the assay with HCT-116 colon, 86.8 µM; in the assay on UACC-257 melanoma, 35 µM; with OVCAR-5 ovarian, above 100 µM; with SNB-19 CNS, 47.1 µM. In addition, the TGI with RXF 393 renal is 38.4 µM; in the assay with NCI-H226 lung, 49 µM; with HCT-15 colon it was 52.5 µM; with NCI-H23 lung it was 47 µM.

For the compound `Cc1ccc2ccc3ccc(C)nc3c2n1`, the TGI with EKVX NSCLC was above 100 µM; in the assay on TK-10 renal, above 100 µM; with HCT-116 colon it was above 44.7 µM; with UACC-257 melanoma it was above 100 µM; in the assay on OVCAR-5 ovarian it was above 100 µM; with SNB-19 CNS it was above 100 µM. For the same compound, the TGI in the assay on RXF 393 renal, in the assay with NCI-H226 lung, with HCT-15 colon and in the assay on NCI-H23 lung was above 100 µM throughout.
